Data set [1] concerns tumor-infiltrating CD45+ and CD8+ cells in MC38 tumor. The experiment in a line: Flow cytometry of tumor infiltrating leukocytes in MC38 tumors (FIG. 20). It counts as in vivo, mouse. The note with it: MC38 tumor tissue, vs vehicle. An excerpt:
A mouse tumor dissociation kit (Cat. 130-096-730, Miltenyi Biotec, Bergisch Gladbach, Germany) was used for tumor digestion according to the manufacturer's protocol. Briefly, the tumor was cut into small fragments with RPMI 1640 containing enzymes D, R, and A. After filtration through a 70 μm cell strainer, red blood cells were removed using RBC lysis buffer (Cat. 420301, BioLegend, San Diego, CA, USA). The acquired single-cell suspension was used for further analysis. For analysis of intracellular cytokines, the cell suspension was incubated in the presence of a cell stimulation cocktail (with a protein transport inhibitor) (Cat. 00-4975-93, Invitrogen, eBioscience) for 5 h and subjected to fixation and permeabilization using an intracellular fixation and permeabilization buffer set (Cat. 88-8824-00, Thermo Fisher) according to the manufacturer's protocol. Following the staining process, samples were analyzed with Novocyte (ACEA Biosciences, San Diego, CA, USA).
CTLs are the key mediators of granzyme- and perforin-mediated cancer cell destruction during cancer immunosurveillance and immunotherapy. […] To investigate the effect of HS1002 on tumor-infiltrating CD8^+ T cells in MC38 tumor tissue, flow cytometric analysis was used. Flow cytometric analysis confirmed that HS1002 elevated the total number of tumor-infiltrating CD45+ cells and the production of granzyme B and IFN-γ in CD8^+ cells and in MC38 tumor tissue (FIG. 20A). To assess the effect of HS1002 on immune response-related gene expression in a syngeneic mouse model, gene expression analysis was conducted by profiling the transcriptomes of the tumor. A total of 49,196 genes were analyzed in tumor tissues, and genes with a fold change exceeding 1.5 were included for further analysis with statistical significance at p<0.05.
(In general: Flow cytometry measures light scatter and fluorescence of single cells or particles in a stream.)

A further data set relates to telomerase. In words: Telomerase activity quantification qPCR in treated LNCaP cells (FIG. 10, 11). It counts as cell-based, human. The note with it: FIG. 11. How it is done:
After treatment with GV1001, HS1001, HS1002, and GnRH, the changes in hTERT mRNA and protein expression level were investigated for each peptide. The drug treatment was performed every 24 h considering the stability of peptides in aqueous solutions. To investigate the telomerase activity reducing effect of the peptides, prostate cancer cell lines (LNCaP) were treated with each drug at 300 μM every 24 h for a total of 72 h and then measured for telomerase activity through qPCR. The proteins in a cell lysate were quantified to obtain a telomerase product extended by the same amount of proteins, and qPCR was performed using the telomerase as a template.
In the treatment with the peptides, the change in telomerase activity was investigated. The cells were cultured in 100-mm plates each, and about 24 h later, the cells were treated with the peptides synthesized in Example 3 at a concentration of 300 μM before incubation. The cells were cultured in a 37° C., 5% CO2 incubator using 1% FBS RPMI media. The cells were harvested 72 h after the peptide treatment and measured for telomerase activity. A telomerase activity quantification qPCT analysis kit (ScienCell, Carlsbad, CA, USA) was used.
(In qPCR the cycle at which signal appears reflects the starting amount.)

Data set [2] relates to Ki-67 and hTERT in LNCaP tumor tissue. The experiment in a line: Ki-67 immunohistochemistry and hTERT immunoblotting in xenograft tumor tissue (FIG. 18). The format is in vivo, mouse. The note with it: s.c. administration, compared with the control group. The procedure:
Mice were sacrificed, and the excised tumors were fixed in 10% formalin and impregnated with paraffin. For pathological examination, immunohistochemistry was performed by the avidin-biotin complex method using Ki-67 antibodies. The immune response was visualized with a reagent (3,3-diaminobenzidine) and counter-stained with Mayer's hematoxylin. TUNEL assay in tissue was performed using ApopTag Plus Peroxidase in Situ Apoptosis Detection kits (Intergen, Purchase, NY)) according to the manufacturer's indications. In summary, paraffin was removed from slides, and the slides were placed in 3% hydrogen peroxide to inhibit endogenous peroxidase. The slides were incubated in a reaction buffer containing an enzyme (terminal deoxynucleotidyl transferase) at 37° C. for 1 h. The slides were incubated with peroxidase-conjugated anti-digoxigenin antibodies for 30 min, and the reaction product was visualized with a solution containing 2 mmol hydrogen peroxide (0.03% 3,3-diaminobenzidine solution). Counterstaining was performed with 0.5% methyl green. Ki-67- and TUNEL-positive cells were counted and expressed as an average of the five highest areas within a single×200 field. A portion of tumor tissue was homogenized, followed by immunoblotting for hTERT.

The next data set deals with LNCaP. The experiment in a line: cells. The format is cell-based, human. The note with it: human, 48 h. The procedure:
(§1) To evaluate anticancer activities of the produced peptides on various types of cancer cells, MTT analysis was performed. Human prostate cancer cell lines (LNCaP, PC3, and DU145), human breast cancer cell lines (MDA-MB-231 and MCF-7), lung cancer cell line (A549), and ovarian cancer cell line (SKOV3) were cultured in RPMI media supplemented with 1% penicillin/streptomycin and 1% fetal bovine serum (all from Life Technologies, Grand Island, NY). The cells were seeded in 96-well plates containing 100 μL of growth media for 24 h. The media were removed, and then 100 μL of the peptide (solvent DPBS) at each concentration was added to each well and incubated at 37° C. for 48 h. After incubation for 48 h, 100 μL of MTT reagent was added to each well. The cells were incubated at 37° C. for 4 h, and then the supernatant was removed. Formazan crystals were dissolved in 100 μL of DMSO with gentle stirring at 37° C. for 10 min. The absorbance per well was measured at 540 nm using a VERSA max microplate reader (Molecular Devices Corp.).

In the next data set the test system is MCF-7. In words: cells. It counts as cell-based, human. The note with it: human, 48 h. How it is done:
as §1

Data set [3] concerns BAX, C-PARP, Bcl-2 in LNCaP. The experiment in a line: Western blot of proteins involved in apoptosis (FIG. 9). It counts as cell-based, human. The note with it: different concentrations, 48 h. How it is done:
The prostate cancer cell line (LNCaP) was seeded into six-well plates and then incubated in an incubator for one day. The peptides were diluted in fresh media and then used to treat the cells. After 48 h, the media were removed, the plates were washed twice with DPBS, and 1 mL of trypsin was placed in each well to separate the cells, and 5 mL of media were added to each well to dilute the trypsin, followed by centrifugation at 1000 rpm for 5 min, thereby preparing the cells. Thereafter, proteins were extracted using a Pro-prep protein extraction kit, separated by electrophoresis, and blotted onto a membrane. The membrane was blocked by a Blotting-Grade Blocker at room temperature for 1 hour, and then primary antibodies (1000:1) were added, followed by incubation at 4° C. for one day. Thereafter, the membrane was repeatedly washed with 1×TBST (Tris 25 g, NaCl 120 g in D.W.+[…] 0.1%) every 10 min for 1 h. Then, secondary antibodies (10000:1) were added, followed by incubation at room temperature for 1 h, and then the membrane was repeatedly washed with 1×TBST every 10 min for 1 h. After incubation with […] substrates for 5 min, desired protein bands were identified using a Chemi-doc system.

We go through one molecule from US20240247031A1, “COMPOSITION FOR TREATING CANCER CONTAINING TELOMERASE-TARGETING GNRH ANTAGONIST-DERIVED PEPTIDE HS1002” (Research & Business Foundation Sungkyunkwan University, priority 2023, published 2024).

SMILES strings stand for the structures.

Turning to `CCNC(=O)[C@@H]1CCCN1C(=O)[C@@H](NC(=O)[C@H](Cc1ccccc1)NC(=O)[C@H](CCCNC(=N)N)NC(=O)[C@H](CC(C)C)NC(=O)[C@H](CCCNC(=N)N)NC(=O)[C@H](Cc1ccc(O)cc1)NC(=O)[C@H](CO)NC(=O)[C@H](Cc1c[nH]c2ccccc12)NC(=O)[C@H](Cc1c[nH]cn1)NC(=O)[C@@H]1CCC(=O)N1)[C@@H](C)CC` [HS1002], in data set [1], the “production of IFN-γ in CD8+ cells” value is listed as “elevated”, the “production of granzyme B in CD8+ cells” value is listed as “elevated” and the “total number of tumor-infiltrating CD45+ cells” value was “elevated”. For the same molecule, the “telomerase activity compared with GV1001” value with telomerase is “better telomerase activity than GV1001”. For the same molecule, in data set [2], the “Ki-67 protein expression level in tumor tissues” value was “distinctively reduced” and the “hTERT protein expression level in tumor tissues” value is given as “distinctively reduced”. In addition, the “Cytotoxicity (IC50) LNCaP” value in the data set on LNCaP came to 6.83 ± 0.72 µg/mL. For the same molecule, in the data set on MCF-7, the “Cytotoxicity (IC50) MCF-7” value turned out to be 53.31 ± 1.79 µg/mL. Further, in data set [3], the “expression level of BAX” value is reported as “increased”, the “expression level of Bcl-2” value is recorded as “decreased” and the “expression level of C-PARP” value is on record as “increased”.
